Experiments:
Test in all cases: KINOMEscan kinase binding assay
FRK = details: at 1 μM
Procedure, shortened: (§1)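 Competition binding format: a test compound at a single concentration displaces phage-tagged or DNA-tagged kinase from an immobilized affinity ligand. After washing, kinase is released with 0.5 μM free ligand (30 min, room temperature) and measured by qPCR. Data are given as % Ctrl.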

FLT3(D835H) = details: at 1 μM
Procedure, shortened: as §1

ABL1-nonphosphorylated = details: at 1 μM
Procedure, shortened: as §1

ALK(L1196M) = details: at 1 μM
Procedure, shortened: as §1

VEGFR2 = details: at 1 μM
Procedure, shortened: as §1

[1] = tested on: ABL1(M351T)-phosphorylated; details: at 1 μM
Procedure, shortened: as §1

FLT3-autoinhibited = details: at 1 μM
Procedure, shortened: as §1

RET(V804L) = details: at 1 μM
Procedure, shortened: as §1

KIT(L576P) = details: at 1 μM
Procedure, shortened: as §1

EPHA7 = details: at 1 μM
Procedure, shortened: (§2)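 KINOMEscan competition assay. T7-phage kinase fusions (E. coli lysates) or DNA-tagged HEK-293 kinases; immobilized biotinylated ligand on beads; 1 h RT incubation; qPCR detection of bound kinase. Output: % Ctrl or Kd.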

[2] = tested on: TYK2(JH2domain-pseudokinase); details: for % Ctrl: TYK2(JH2domain-pseudokinase), at 1 μM; for Kd: read-out: TYK2(JH2 domain-pseudokinase) Kd
Procedure, shortened: as §2

BRK = details: at 1 μM
Procedure, shortened: as §1

[3] = tested on: EGFR(L747-E749del, A750P); details: at 1 μM
Procedure, shortened: as §1

EPHA1 = details: at 1 μM
Procedure, shortened: as §2

FGFR1 = details: at 1 μM
Procedure, shortened: as §1

FLT3 = details: at 1 μM
Procedure, shortened: as §1

PYK2 = details: at 1 μM
Procedure, shortened: as §1

FLT3(D835V) = details: at 1 μM
Procedure, shortened: as §1

EPHA4 = details: at 1 μM
Procedure, shortened: as §2

ALK = details: at 1 μM
Procedure, shortened: as §1

TRKB = details: at 1 μM
Procedure, shortened: as §1

INSRR = details: at 1 μM
Procedure, shortened: as §1

ERBB2 = details: at 1 μM
Procedure, shortened: as §1

[4] = tested on: ABL1(H396P)-phosphorylated; details: at 1 μM
Procedure, shortened: as §1

KIT(A829P) = details: at 1 μM
Procedure, shortened: as §1

[5] = tested on: JAK1(JH2domain-pseudokinase); details: for % Ctrl: JAK1(JH2domain-pseudokinase), at 1 μM; for Kd: read-out: JAK1(JH2 domain-pseudokinase) Kd
Procedure, shortened: as §1

EGFR(L861Q) = details: at 1 μM
Procedure, shortened: as §2

YES = details: at 1 μM
Procedure, shortened: as §1

EPHA6 = details: at 1 μM
Procedure, shortened: as §2

[6] = tested on: ABL1(E255K)-phosphorylated; details: at 1 μM
Procedure, shortened: as §1

ITK = details: at 1 μM
Procedure, shortened: as §1

[7] = tested on: EGFR(L747-S752del, P753S); details: at 1 μM
Procedure, shortened: as §1

PDGFRA = details: at 1 μM
Procedure, shortened: as §1

LTK = details: at 1 μM
Procedure, shortened: as §1

MET(M1250T) = details: at 1 μM
Procedure, shortened: as §1

CSF1R-autoinhibited = details: at 1 μM
Procedure, shortened: as §1

ALK(C1156Y) = details: at 1 μM
Procedure, shortened: as §1

[8] = tested on: ABL1(T315I)-nonphosphorylated; details: at 1 μM
Procedure, shortened: as §1

TNK2 = details: at 1 μM
Procedure, shortened: as §1

FGR = details: at 1 μM
Procedure, shortened: as §1

## Cc1cc2c([nH]1)/C=C1\C(=O)Nc3ccc(cc31)-c1c(nn(C)c1C)OCCCN(C)C2=O [Cpd. 1, [3a(4)Z]-6,9,15,16-tetramethyl-9,10,11,12-tetrahydro-15H-1,17-(ethanediylidene)pyrazolo[4,3-n]dipyrrolo[3,2-g:3′,4′-j][1,5]oxazacyclopentadecine-3,8(2H,5H)-dione]
FRK
  % Ctrl: 93%
FLT3(D835H)
  % Ctrl: 96%
ABL1-nonphosphorylated
  % Ctrl: 87%
ALK(L1196M)
  % Ctrl: 89%
VEGFR2
  % Ctrl: 93%
[1]
  % Ctrl: 100%
FLT3-autoinhibited
  % Ctrl: 92%
RET(V804L)
  % Ctrl: 82%
KIT(L576P)
  % Ctrl: 88%
EPHA7
  % Ctrl: 91%
[2]
  % Ctrl: 1.5%
  Kd: 0.22 µM
BRK
  % Ctrl: 92%
[3]
  % Ctrl: 100%
EPHA1
  % Ctrl: 100%
FGFR1
  % Ctrl: 100%
FLT3
  % Ctrl: 92%
PYK2
  % Ctrl: 100%
FLT3(D835V)
  % Ctrl: 61%
EPHA4
  % Ctrl: 96%
ALK
  % Ctrl: 87%
TRKB
  % Ctrl: 87%
INSRR
  % Ctrl: 94%
ERBB2
  % Ctrl: 98%
[4]
  % Ctrl: 96%
KIT(A829P)
  % Ctrl: 93%
[5]
  % Ctrl: 100%
EGFR(L861Q)
  % Ctrl: 82%
YES
  % Ctrl: 100%
EPHA6
  % Ctrl: 94%
[6]
  % Ctrl: 92%
ITK
  % Ctrl: 89%
[7]
  % Ctrl: 100%
PDGFRA
  % Ctrl: 87%
LTK
  % Ctrl: 74%
MET(M1250T)
  % Ctrl: 83%
CSF1R-autoinhibited
  % Ctrl: 82%
ALK(C1156Y)
  % Ctrl: 100%
[8]
  % Ctrl: 83%
TNK2
  % Ctrl: 100%
FGR
  % Ctrl: 91%

## Cc1cc2c([nH]1)/C=C1\C(=O)Nc3ccc(cc31)-c1c(nn(C)c1C)COCCN(C)C2=O [Cpd. 2, [3a(4)Z]-6,9,15,16-tetramethyl-10,11,13,15-tetrahydro-2H-1,17-(ethanediylidene)pyrazolo[4,3-m]dipyrrolo[3,2-f:3′,4′-i][1,4]oxazacyclopentadecine-3,8(5H,9H)-dione]
FRK
  % Ctrl: 98%
FLT3(D835H)
  % Ctrl: 31%
ABL1-nonphosphorylated
  % Ctrl: 55%
ALK(L1196M)
  % Ctrl: 94%
VEGFR2
  % Ctrl: 48%
[1]
  % Ctrl: 57%
FLT3-autoinhibited
  % Ctrl: 83%
RET(V804L)
  % Ctrl: 80%
KIT(L576P)
  % Ctrl: 100%
EPHA7
  % Ctrl: 89%
[2]
  % Ctrl: 0.6%
  Kd: 0.0012 µM
BRK
  % Ctrl: 100%
[3]
  % Ctrl: 85%
EPHA1
  % Ctrl: 100%
FGFR1
  % Ctrl: 100%
FLT3
  % Ctrl: 67%
PYK2
  % Ctrl: 100%
FLT3(D835V)
  % Ctrl: 7.9%
EPHA4
  % Ctrl: 100%
ALK
  % Ctrl: 100%
TRKB
  % Ctrl: 12%
INSRR
  % Ctrl: 100%
ERBB2
  % Ctrl: 100%
[4]
  % Ctrl: 64%
KIT(A829P)
  % Ctrl: 92%
[5]
  % Ctrl: 30%
EGFR(L861Q)
  % Ctrl: 62%
YES
  % Ctrl: 100%
EPHA6
  % Ctrl: 100%
[6]
  % Ctrl: 45%
ITK
  % Ctrl: 80%
[7]
  % Ctrl: 100%
PDGFRA
  % Ctrl: 73%
LTK
  % Ctrl: 100%
MET(M1250T)
  % Ctrl: 98%
CSF1R-autoinhibited
  % Ctrl: 100%
ALK(C1156Y)
  % Ctrl: 93%
[8]
  % Ctrl: 17%
TNK2
  % Ctrl: 89%
FGR
  % Ctrl: 100%

## Cc1cc2c([nH]1)/C=C1\C(=O)Nc3c(Cl)cc(cc31)-c1cn(C)nc1COC[C@@H](C)NC2=O [Cpd. 3, [3a(4)Z,10R]-20-chloro-6,10,15-trimethyl-10,11,13,15-tetrahydro-2H-1,17-(ethanediylidene)pyrazolo[4,3-m]dipyrrolo[3,2-f:3′,4′-i][1,4]oxazacyclopentadecine-3,8(5H,9H)-dione]
FRK
  % Ctrl: 97%
FLT3(D835H)
  % Ctrl: 100%
ABL1-nonphosphorylated
  % Ctrl: 92%
ALK(L1196M)
  % Ctrl: 94%
VEGFR2
  % Ctrl: 92%
[1]
  % Ctrl: 99%
FLT3-autoinhibited
  % Ctrl: 93%
RET(V804L)
  % Ctrl: 98%
KIT(L576P)
  % Ctrl: 100%
EPHA7
  % Ctrl: 100%
[2]
  % Ctrl: 0%
  Kd: 0.003 µM
BRK
  % Ctrl: 95%
[3]
  % Ctrl: 90%
EPHA1
  % Ctrl: 85%
FGFR1
  % Ctrl: 80%
FLT3
  % Ctrl: 57%
PYK2
  % Ctrl: 94%
FLT3(D835V)
  % Ctrl: 100%
EPHA4
  % Ctrl: 92%
ALK
  % Ctrl: 100%
TRKB
  % Ctrl: 100%
INSRR
  % Ctrl: 99%
ERBB2
  % Ctrl: 100%
[4]
  % Ctrl: 100%
KIT(A829P)
  % Ctrl: 99%
[5]
  % Ctrl: 3.1%
  Kd: 0.12 µM
EGFR(L861Q)
  % Ctrl: 98%
YES
  % Ctrl: 99%
EPHA6
  % Ctrl: 93%
[6]
  % Ctrl: 100%
ITK
  % Ctrl: 100%
[7]
  % Ctrl: 90%
PDGFRA
  % Ctrl: 92%
LTK
  % Ctrl: 100%
MET(M1250T)
  % Ctrl: 100%
CSF1R-autoinhibited
  % Ctrl: 71%
ALK(C1156Y)
  % Ctrl: 89%
[8]
  % Ctrl: 100%
TNK2
  % Ctrl: 97%
FGR
  % Ctrl: 98%

## C[C@@H]1COCc2nn(C)cc2-c2cc(Cl)c3c(c2)/C(=C/c2[nH]ccc2C(=O)N1)C(=O)N3 [Cpd. 4, [3a(4)Z,10R]-20-chloro-10,15-dimethyl-10,11,13,15-tetrahydro-2H-1,17-(ethanediylidene)pyrazolo[4,3-m]dipyrrolo[3,2-f:3′,4′-i][1,4]oxazacyclopentadecine-3,8(5H,9H)-dione]
FRK
  % Ctrl: 78%
FLT3(D835H)
  % Ctrl: 65%
ABL1-nonphosphorylated
  % Ctrl: 84%
ALK(L1196M)
  % Ctrl: 94%
VEGFR2
  % Ctrl: 94%
[1]
  % Ctrl: 94%
FLT3-autoinhibited
  % Ctrl: 93%
RET(V804L)
  % Ctrl: 95%
KIT(L576P)
  % Ctrl: 100%
EPHA7
  % Ctrl: 100%
[2]
  % Ctrl: 0.2%
  Kd: 0.0019 µM
BRK
  % Ctrl: 83%
[3]
  % Ctrl: 75%
EPHA1
  % Ctrl: 71%
FGFR1
  % Ctrl: 75%
FLT3
  % Ctrl: 100%
PYK2
  % Ctrl: 92%
FLT3(D835V)
  % Ctrl: 75%
EPHA4
  % Ctrl: 92%
ALK
  % Ctrl: 100%
TRKB
  % Ctrl: 100%
INSRR
  % Ctrl: 91%
ERBB2
  % Ctrl: 100%
[4]
  % Ctrl: 96%
KIT(A829P)
  % Ctrl: 92%
[5]
  % Ctrl: 0.25%
  Kd: 0.029 µM
EGFR(L861Q)
  % Ctrl: 89%
YES
  % Ctrl: 95%
EPHA6
  % Ctrl: 97%
[6]
  % Ctrl: 94%
ITK
  % Ctrl: 99%
[7]
  % Ctrl: 90%
PDGFRA
  % Ctrl: 96%
LTK
  % Ctrl: 100%
MET(M1250T)
  % Ctrl: 100%
CSF1R-autoinhibited
  % Ctrl: 75%
ALK(C1156Y)
  % Ctrl: 100%
[8]
  % Ctrl: 100%
TNK2
  % Ctrl: 100%
FGR
  % Ctrl: 100%
